{
  "source": "ChEMBL document CHEMBL1144945",
  "about": "“Development of progesterone receptor antagonists from 1,2-dihydrochromeno[3,4-f]quinoline agonist pharmacophore” (Bioorg Med Chem Lett, 2003)",
  "key": {"[1]": {"target": "T1, Progesterone receptor (Homo sapiens, UniProt P06401)", "T1 sequence (P06401 whole entry)": "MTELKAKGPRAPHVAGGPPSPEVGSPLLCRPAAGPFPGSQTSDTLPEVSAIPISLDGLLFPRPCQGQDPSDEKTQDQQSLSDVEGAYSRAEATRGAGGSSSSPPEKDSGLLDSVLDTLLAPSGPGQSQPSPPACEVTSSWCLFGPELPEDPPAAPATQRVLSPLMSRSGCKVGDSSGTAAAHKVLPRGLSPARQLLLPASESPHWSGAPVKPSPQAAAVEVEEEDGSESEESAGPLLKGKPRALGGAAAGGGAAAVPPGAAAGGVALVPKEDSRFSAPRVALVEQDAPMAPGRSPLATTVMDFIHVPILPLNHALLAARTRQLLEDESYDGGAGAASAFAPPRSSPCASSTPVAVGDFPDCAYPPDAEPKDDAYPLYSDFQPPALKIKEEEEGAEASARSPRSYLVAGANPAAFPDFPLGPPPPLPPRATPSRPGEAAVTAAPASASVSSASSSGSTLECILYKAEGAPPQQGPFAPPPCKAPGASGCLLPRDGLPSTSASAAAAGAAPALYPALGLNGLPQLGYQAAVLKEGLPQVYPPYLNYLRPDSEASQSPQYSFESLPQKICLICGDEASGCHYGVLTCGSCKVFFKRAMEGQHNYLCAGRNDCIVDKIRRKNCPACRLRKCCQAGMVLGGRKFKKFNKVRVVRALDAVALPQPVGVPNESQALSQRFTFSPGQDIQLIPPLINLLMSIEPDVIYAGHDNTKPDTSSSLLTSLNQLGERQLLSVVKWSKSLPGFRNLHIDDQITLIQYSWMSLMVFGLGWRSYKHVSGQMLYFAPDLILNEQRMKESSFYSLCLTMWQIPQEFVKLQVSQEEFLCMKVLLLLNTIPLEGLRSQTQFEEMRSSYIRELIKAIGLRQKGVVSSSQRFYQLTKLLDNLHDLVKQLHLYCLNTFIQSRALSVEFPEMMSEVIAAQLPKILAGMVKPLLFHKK", "description": "Binding affinity at human progesterone receptor."}, "[2]": {"target": "T2, Progesterone receptor (Homo sapiens) (UniProt P06401)", "T2 sequence (whole entry)": "T1 sequence (P06401 whole entry)", "assay": "Agonist efficacy for human progesterone receptor in T47D human breast cancer cell; not active (<20% efficacy and/or >10 mM potency)", "assay_type": "functional, cell-based"}, "[3]": {"target": "T1, Progesterone receptor", "remark": "listed apart in the source", "description": "Antagonistic activity at human progesterone receptor in CV-1 cells."}, "[4]": {"target": "T1, Progesterone receptor", "assay": "Effective concentration for human progesterone receptor in T47D human breast cancer cell; not active (<20% efficacy and/or >10 mM potency)", "conditions": "cancer cell lines"}, "[5]": {"target": "T1, Progesterone receptor", "remark": "listed apart in the source", "description": "Inhibition of human progesterone receptor activation in T47D human breast cancer cell."}, "[6]": {"target": "T3, Mineralocorticoid receptor (Homo sapiens) (UniProt P08235)", "T3 sequence (whole entry)": "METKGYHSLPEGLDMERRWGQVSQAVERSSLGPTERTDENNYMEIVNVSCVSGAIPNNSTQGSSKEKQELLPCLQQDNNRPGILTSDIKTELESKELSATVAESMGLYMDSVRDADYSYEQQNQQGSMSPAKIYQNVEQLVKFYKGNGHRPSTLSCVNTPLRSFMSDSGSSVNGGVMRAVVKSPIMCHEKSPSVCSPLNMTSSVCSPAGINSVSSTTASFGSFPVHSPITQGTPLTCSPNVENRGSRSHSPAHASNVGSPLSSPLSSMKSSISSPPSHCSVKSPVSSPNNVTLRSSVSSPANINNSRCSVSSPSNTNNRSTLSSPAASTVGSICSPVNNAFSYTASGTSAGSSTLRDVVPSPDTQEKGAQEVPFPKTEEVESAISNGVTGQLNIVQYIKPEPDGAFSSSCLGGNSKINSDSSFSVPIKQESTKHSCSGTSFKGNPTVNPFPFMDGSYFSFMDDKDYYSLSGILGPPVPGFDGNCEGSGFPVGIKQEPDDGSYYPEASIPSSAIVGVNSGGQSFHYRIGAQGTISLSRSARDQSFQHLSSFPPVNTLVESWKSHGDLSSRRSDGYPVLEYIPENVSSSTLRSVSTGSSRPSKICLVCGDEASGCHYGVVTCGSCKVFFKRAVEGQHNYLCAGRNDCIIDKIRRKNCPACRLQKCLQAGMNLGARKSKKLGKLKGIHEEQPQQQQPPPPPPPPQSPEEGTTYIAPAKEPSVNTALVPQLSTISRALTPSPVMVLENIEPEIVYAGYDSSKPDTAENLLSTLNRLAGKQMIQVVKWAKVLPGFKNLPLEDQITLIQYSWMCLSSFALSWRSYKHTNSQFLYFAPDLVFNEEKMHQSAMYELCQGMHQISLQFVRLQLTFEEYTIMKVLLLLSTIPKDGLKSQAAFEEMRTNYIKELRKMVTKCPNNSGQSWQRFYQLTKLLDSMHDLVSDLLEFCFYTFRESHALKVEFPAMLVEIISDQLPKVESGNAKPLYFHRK", "assay": "Antagonist efficacy for mineralocorticoid receptor (hMR); Not active", "assay_type": "functional"}, "[7]": {"target": "T4, Mineralocorticoid receptor (Homo sapiens, UniProt P08235)", "T4 sequence (P08235 whole entry)": "T3 sequence (whole entry)", "assay": "Inhibition of antagonist activity towards mineralocorticoid receptor (hMR); Not active", "assay_type": "functional"}, "[8]": {"target": "Estrogen receptor (Homo sapiens) (UniProt Q92731+P03372)", "assay": "Antagonist efficacy for Estrogen receptor; Not active", "assay_type": "functional"}, "[9]": {"target": "T1, Progesterone receptor", "assay": "Binding towards human progesterone receptor"}},
  "note": "Calls of active or inactive are those of the source.",
  "data": [
    {"smiles": "CC1CC(C)(C)Nc2ccc3c(c21)COc1c(F)cc(F)cc1-3", "note": "(stereo not given)", "values": [
      {"measurement": "Ki", "setting": "[1]", "result": 45, "unit": "nM"},
      {"measurement": "Efficacy", "setting": "[2]", "result": "inactive"},
      {"measurement": "EC50", "setting": "[3]", "result": 40, "unit": "nM"},
      {"measurement": "EC50", "setting": "[4]", "result": "Not Active"},
      {"measurement": "IC50", "setting": "[5]", "result": 217, "unit": "nM"},
      {"measurement": "Efficacy", "setting": "[6]", "result": "inactive"},
      {"measurement": "IC50", "setting": "[7]", "result": "Not Active"},
      {"measurement": "Efficacy", "setting": "[8]", "result": "inactive"}
    ]},
    {"smiles": "CC1=CC(C)(C)Nc2ccc3c(c21)COc1c(F)cc(Br)cc1-3", "values": [
      {"measurement": "Ki", "setting": "[1]", "result": 12.4, "unit": "nM"},
      {"measurement": "Efficacy", "setting": "[2]", "result": "inactive"},
      {"measurement": "EC50", "setting": "[3]", "result": 57, "unit": "nM"},
      {"measurement": "EC50", "setting": "[4]", "result": "Not Active"},
      {"measurement": "IC50", "setting": "[5]", "result": 461, "unit": "nM"},
      {"measurement": "Efficacy", "setting": "[6]", "result": "inactive"},
      {"measurement": "IC50", "setting": "[7]", "result": "Not Active"},
      {"measurement": "Efficacy", "setting": "[8]", "result": "inactive"}
    ]},
    {"smiles": "CC1=CC(C)(C)Nc2ccc3c(c21)COc1c(F)cc(Cl)cc1-3", "values": [
      {"measurement": "Efficacy", "setting": "[6]", "result": "inactive"},
      {"measurement": "Ki", "setting": "[9]", "result": 5.6, "unit": "nM"},
      {"measurement": "IC50", "setting": "[7]", "result": "Not Active"}
    ]},
    {"smiles": "CC1CC(C)(C)Nc2ccc3c(c21)COc1ccc([N+](=O)[O-])cc1-3", "note": "(stereo not given)", "values": [
      {"measurement": "Ki", "setting": "[1]", "result": 144, "unit": "nM"},
      {"measurement": "Efficacy", "setting": "[2]", "result": "inactive"},
      {"measurement": "EC50", "setting": "[3]", "result": 52, "unit": "nM"},
      {"measurement": "EC50", "setting": "[4]", "result": "Not Active"},
      {"measurement": "IC50", "setting": "[5]", "result": 104, "unit": "nM"},
      {"measurement": "Efficacy", "setting": "[6]", "result": 58, "unit": "%"},
      {"measurement": "IC50", "setting": "[7]; read-out: IC50", "result": "2870 nM (not active)"},
      {"measurement": "Efficacy", "setting": "[8]", "result": "inactive"}
    ]},
    {"smiles": "CC1=CC(C)(C)Nc2ccc3c(c21)COc1c(F)cc(F)cc1-3", "values": [
      {"measurement": "Efficacy", "setting": "[6]", "result": "inactive"},
      {"measurement": "Ki", "setting": "[9]", "result": 13.5, "unit": "nM"},
      {"measurement": "IC50", "setting": "[7]", "result": "Not Active"}
    ]}
  ]
}
